Data reported in patent publication US3989835A, “Method of using 6-substituted amino phenyl-2,3,5,6-tetra-hydro[2,1-b]thiazoles for controlling gastrointestinal nematodes” (American Cyanamid Company, priority 1974, dated 1976).
Where a name gives a salt, the structure may show the parent alone. Read-outs that look alike come from different tables or passages of the source.

Experiments:
Nematospiroides dubius = assay: Anthelmintic efficacy against N. dubius in mice, single oral dose; assay type: in vivo, Nematospiroides dubius (in albino female mice); details: for inhibition in vivo at 1.25 mg/kg: single oral dose 1.25 mg./Kg.; for inhibition in vivo at 2 mg/kg: single oral dose 2.0 mg./Kg.; for inhibition in vivo at 5 mg/kg: single oral dose 5.0 mg./Kg.; for inhibition in vivo at 20 mg/kg: single oral dose 20 mg./Kg.; for inhibition in vivo at 40 mg/kg: single oral dose 40 mg./Kg.; for inhibition in vivo at 50 mg/kg: single oral dose 50 mg./Kg.; for inhibition in vivo at 100 mg/kg: single oral dose 100 mg./Kg.; for inhibition in vivo at 60 mg/kg: single oral dose 60 mg./Kg.
Protocol: Albino female mice are each inoculated with about 20 infectious larvae of Nematospiroides dubius. This nematode is a representative of the economical important trichostrongylis worms of ruminants and other hosts, and of nematodes in general. Twenty-two days after inoculation, groups of four randomly selected mice containing adult N. dubius are given single oral doses of test compounds dissolved or suspended in 0.4 ml. of water per 20 gram mouse. At 26 or 27 days after inoculation, treated mice and in each test four randomly selected groups of untreated mice are necropsied. The number of worms in the small intestine of each mouse are determined by microscopic examination. Average worm numbers for each treated group and for the untreated controls are computed and the percent efficacy determined by the customary formula:
(Average Worms in Control - Average Worms in Treated)/(Average Worms in Control) X 100.

in vivo = details: for LD50: mouse, in vivo, po; for Approx. LD50 /ED50: chemotherapeutic index, mouse oral, N. dubius; for Dead/Total: mice
Source text: Data on the acute oral toxicity to mice of various single oral doses of the above compounds and several analogs were obtained by conventional procedures, (Table IX hereinafter).

[1] = Heligmosomoides polygyrus, po, molar-adjusted, read-out: Percent Nematospiroides Activity
[2] = Heligmosomoides polygyrus, po, single oral dose 10 mg./Kg., molar-adjusted, read-out: Percent Nematospiroides Activity
[3] = LD50, mice, adjusted to molar equivalents of tetramisole free base
[4] = Heligmosomoides polygyrus, po, as Base, single oral dose, mice, > indicates inactive at dose shown, read-out: Approx. ED50
[5] = Heligmosomoides polygyrus, po, mouse oral, Table IX, read-out: Approx. ED50 vs. N. dubius
[6] = Approx. LD50, mouse oral, Table IX
[7] = as Base, single oral dose, mice, > indicates inactive at dose shown
[8] = as Base, single oral dose, mice, > indicates inactive at dose shown, hydrochloride

O=C(Nc1cccc(C2CN3CCSC3=N2)c1)c1ccc([N+](=O)[O-])cc1 (stereo not shown) [Table XII b1857]
inhibition in vivo at 1.25 mg/kg (Nematospiroides dubius; [1]): 65% | inhibition in vivo at 2 mg/kg (Nematospiroides dubius; [1]): 78% | inhibition in vivo at 5 mg/kg (Nematospiroides dubius; [1]): 100% | inhibition in vivo at 10 mg/kg (Nematospiroides dubius; [2]): 100% | LD50 (in vivo; [3]): 60 to 90 mg/kg

O=C(Nc1cccc(C2CN3CCSC3=N2)c1)c1ccccc1 (stereo not shown) [Table XII b1839]
inhibition in vivo at 1.25 mg/kg (Nematospiroides dubius; [1]): 94% | inhibition in vivo at 2 mg/kg (Nematospiroides dubius; [1]): 100% | LD50 (in vivo; [3]): 50 to 60 mg/kg

CCC(CC)C(=O)Nc1cccc(C2CN3CCSC3=N2)c1 (racemic) [m-NH-CO-CH(C2 H5)2 dl]
ED50 (Nematospiroides dubius; [4]): 7.5 mg/kg | ED50 (Nematospiroides dubius; [5]): 7.5 mg/kg | inhibition in vivo at 10 mg/kg (Nematospiroides dubius; [2]): 85% | inhibition in vivo at 20 mg/kg (Nematospiroides dubius; [1]): 99% | inhibition in vivo at 40 mg/kg (Nematospiroides dubius; [1]): 100% | Approx. LD50 /ED50 (in vivo; Table IX): 21 | LD50 (in vivo; [6]): 160 mg/kg | LD50 (in vivo; [3]): ~160 mg/kg | Dead/Total (in vivo; single oral dose 80 Mg./Kg.): 0/6 | Dead/Total (in vivo; single oral dose 120 Mg./Kg.): 0/6 | Dead/Total (in vivo; single oral dose 180 Mg./Kg.): 3/6

O=CNc1ccc(C2CN3CCSC3=N2)cc1 (stereo not shown) [d Base NH--HCO para, reference compound]
Approx. ED50 (Nematospiroides dubius; [7]): > 40 Mg./Kg.

CC(CO)Nc1cccc(C2CN3CCSC3=N2)c1 (stereo not shown) [HN--CH(CH3)CH2 OH]
inhibition in vivo at 5 mg/kg (Nematospiroides dubius; [1]): 1% | inhibition in vivo at 10 mg/kg (Nematospiroides dubius; [2]): 1% | inhibition in vivo at 50 mg/kg (Nematospiroides dubius; [1]): 67%

O=[N+]([O-])c1cccc(C2CN3CCSC3=N2)c1 (racemic) [dl HCl NO2 meta, dl-6-(m-nitrophenyl)-2,3,5,6-tetrahydroimidazo[2,1-b]thiazole hydrochloride, reference compound]
ED50 (Nematospiroides dubius; [4]): 15 mg/kg

Nc1ccccc1C1CN2CCSC2=N1 (racemic) [dl 2HCl NH2 ortho, reference compound]
ED50 (Nematospiroides dubius; [4]): > 100 mg/kg

O=CNc1ccc(C2CN3CCSC3=N2)cc1 (stereo not shown) [l Base NH--HCO para, reference compound]
Approx. ED50 (Nematospiroides dubius; [7]): > 10 Mg./Kg.

O=[N+]([O-])c1ccc(C2CN3CCSC3=N2)cc1 (stereo not shown) [d HCl NO2 para, reference compound]
Approx. ED50 (Nematospiroides dubius; [7]): > 200 Mg./Kg.

CC(=O)Nc1ccc(Br)c(C2CN3CCSC3=N2)c1 (stereo not shown) [Table XIII b1903]
inhibition in vivo at 50 mg/kg (Nematospiroides dubius; [1]): 100% | inhibition in vivo at 100 mg/kg (Nematospiroides dubius; [1]): 100%

O=C(C=Cc1ccccc1)Nc1cccc(C2CN3CCSC3=N2)c1 (stereo not shown) [Table XII b1827]
inhibition in vivo at 1.25 mg/kg (Nematospiroides dubius; [1]): 60% | inhibition in vivo at 2 mg/kg (Nematospiroides dubius; [1]): 67% | inhibition in vivo at 5 mg/kg (Nematospiroides dubius; [1]): 100% | inhibition in vivo at 10 mg/kg (Nematospiroides dubius; [2]): 100% | LD50 (in vivo; [3]): ~90 mg/kg

CCC(=O)Nc1cccc(C2CN3CCSC3=N2)c1 (racemic) [m-NH--CO--C2 H5 dl]
ED50 (Nematospiroides dubius; [4]): 2 mg/kg | ED50 (Nematospiroides dubius; [5]): 2 mg/kg | inhibition in vivo at 2 mg/kg (Nematospiroides dubius; [1]): 76% | inhibition in vivo at 5 mg/kg (Nematospiroides dubius; [1]): 100% | inhibition in vivo at 10 mg/kg (Nematospiroides dubius; [2]): 100% | Approx. LD50 /ED50 (in vivo; Table IX): 20 | LD50 (in vivo; [6]): < 40 mg/kg | LD50 (in vivo; [3]): 30 to 40 mg/kg | Dead/Total (in vivo; single oral dose 40 Mg./Kg.): 4/5 | Dead/Total (in vivo; single oral dose 60 Mg./Kg.): 4/6 | Dead/Total (in vivo; single oral dose 80 Mg./Kg.): 5/5 | Dead/Total (in vivo; single oral dose 100 Mg./Kg.): 6/6

O=[N+]([O-])c1cccc(C2CN3C=CSC3=N2)c1 (racemic) [dl HClO4 NO2 * meta, reference compound]
ED50 (Nematospiroides dubius; [4]): 25 mg/kg

CC(C)C(=O)Nc1cccc(C2CN3C=CSC3=N2)c1 (stereo not shown) [5,6-dihydro HN-CO-CH(CH3)2, 3'(5,6-dihydroimidazo[2,1-b]thiazol-6-yl)isobutyranilide]
ED50 (Nematospiroides dubius; [4]): 7.5 mg/kg | inhibition in vivo at 5 mg/kg (Nematospiroides dubius; [1]): 32% | inhibition in vivo at 10 mg/kg (Nematospiroides dubius; [2]): 68%

CS(=O)(=O)Nc1cccc(C2CN3CCSC3=N2)c1 (stereo not shown) [H--N--SO2 CH3]
inhibition in vivo at 100 mg/kg (Nematospiroides dubius; [1]): 100%

Nc1ccc(Br)c(C2CN3CCSC3=N2)c1 (stereo not shown) [Table XIII b1902]
inhibition in vivo at 30 mg/kg (Nematospiroides dubius; Heligmosomoides polygyrus, po, single oral dose 30 mg./Kg., molar-adjusted, read-out: Percent Nematospiroides Activity): 37% | inhibition in vivo at 60 mg/kg (Nematospiroides dubius; [1]): 97%

Cc1cccc(C2CN3CCSC3=N2)c1 (racemic) [dl HCl CH3 meta, reference compound]
ED50 (Nematospiroides dubius; [4]): > 10 mg/kg

Nc1ccc(C2CN3CCSC3=N2)cc1 (stereo not shown) [d 2HCl NH2 para, reference compound]
Approx. ED50 (Nematospiroides dubius; [7]): > 20 Mg./Kg.

O=[N+]([O-])c1ccccc1C1CN2CCSC2=N1 (racemic) [dl HCl NO2 ortho, reference compound]
ED50 (Nematospiroides dubius; [4]): > 100 mg/kg

CC(=O)Nc1cccc(C2CN3CCSC3=N2)c1 (stereo not drawn) [H--N--CO--CH3 l-]
Percent Nematospiroides Activity (Nematospiroides dubius; single oral dose 4.0 mg./Kg., molar-adjusted): 51% | Percent Nematospiroides Activity (Nematospiroides dubius; single oral dose 10 mg./Kg., molar-adjusted): 100%

COc1ccc(CNc2cccc(C3CN4CCSC4=N3)c2)cc1 (stereo not shown) [Table XII b1718]
inhibition in vivo at 10 mg/kg (Nematospiroides dubius; [2]): 40% | inhibition in vivo at 20 mg/kg (Nematospiroides dubius; [1]): 100% | inhibition in vivo at 50 mg/kg (Nematospiroides dubius; [1]): 100% | inhibition in vivo at 100 mg/kg (Nematospiroides dubius; [1]): 100%

Oc1cccc(C2CN3CCSC3=N2)c1 (racemic) [dl OH meta, reference compound]
ED50 (Nematospiroides dubius; [4]): > 10 mg/kg

c1ccc(CNc2cccc(C3CN4CCSC4=N3)c2)cc1 (stereo not shown) [Table XII b1716]
inhibition in vivo at 5 mg/kg (Nematospiroides dubius; [1]): 56% | inhibition in vivo at 10 mg/kg (Nematospiroides dubius; [2]): 91% | inhibition in vivo at 20 mg/kg (Nematospiroides dubius; [1]): 95%

Nc1ccc(C2CN3CCSC3=N2)cc1 (stereo not shown) [l 2HCl NH2 para, reference compound]
ED50 (Nematospiroides dubius; [4]): > 10 mg/kg

O=C(Cc1ccccc1)Nc1cccc(C2CN3CCSC3=N2)c1 (stereo not shown) [Table XII b1825]
inhibition in vivo at 2 mg/kg (Nematospiroides dubius; [1]): 44% | inhibition in vivo at 5 mg/kg (Nematospiroides dubius; [1]): 76% | inhibition in vivo at 10 mg/kg (Nematospiroides dubius; [2]): 95%

Nc1cccc(C2CN3CCSC3=N2)c1 (stereo not drawn) [d 2HCl NH2 meta, d-2,3,5,6-Tetrahydro-6-(m-aminophenyl)imidazo[2,1-b]thiazoleDihydrochloride]
Approx. ED50 (Nematospiroides dubius; [7]): 10 Mg./Kg.

O=[N+]([O-])c1ccc(C2CN3CCSC3=N2)cc1 (stereo not shown) [l HCl NO2 para, reference compound]
Approx. ED50 (Nematospiroides dubius; [7]): 40 Mg./Kg.

COc1cccc(C2CN3CCSC3=N2)c1 (racemic) [dl HBr OCH3 meta, reference compound]
ED50 (Nematospiroides dubius; [4]): > 10 mg/kg

CNc1ccc(C2CN3CCSC3=N2)cc1 (stereo not shown) [l 2HCl NH--CH3 para, reference compound]
ED50 (Nematospiroides dubius; [4]): > 50 mg/kg

O=[N+]([O-])c1cccc(C2CN3CCSC3=N2)c1 (stereo not drawn) [d HCl NO2 meta, d-6-(m-nitrophenyl)-2,3,5,6-tetrahydroimidazo[2,1-b]thiazole hydrochloride, reference compound]
Approx. ED50 (Nematospiroides dubius; [8]): > 30 Mg./Kg.

S=C=Nc1cccc(C2CN3CCSC3=N2)c1 (racemic) [dl Base N=C=S meta, reference compound]
ED50 (Nematospiroides dubius; Heligmosomoides polygyrus, po, read-out: Approx. ED50): 20 mg/kg

CC(C)N(C=O)c1cccc(C2CN3CCSC3=N2)c1 (stereo not shown) [(CH3)2 CH--N--CHO, N-isopropyl-3'-(2,3,5,6-tetrahydroimidazo[2,1-b]thiazol-6-yl) formanilide dihydrochloride]
inhibition in vivo at 40 mg/kg (Nematospiroides dubius; [1]): 99% | inhibition in vivo at 60 mg/kg (Nematospiroides dubius; [1]): 100%

CC(C)(C)C(=O)Nc1cccc(C2CN3C=CSC3=N2)c1 (stereo not shown) [5,6-dihydro HN-CO-C(CH3)3, 3'-(5,6-dihydroimidazo[2,1-b]thiazol-6-yl)pivalanilide]
ED50 (Nematospiroides dubius; [4]): 7.5 mg/kg | inhibition in vivo at 5 mg/kg (Nematospiroides dubius; [1]): 35% | inhibition in vivo at 10 mg/kg (Nematospiroides dubius; [2]): 80%

O=[N+]([O-])c1cccc(C2CN3CCSC3=N2)c1 (stereo not drawn) [l HCl NO2 meta, l-6-(m-Nitrophenyl)-2,3,5,6-tetrahydroimidazo[2,1-b]thiazole hydrochloride, reference compound]
Approx. ED50 (Nematospiroides dubius; [8]): 12 Mg./Kg.
